The IC50 is the point on the concentration scale where inhibition reaches its midpoint. Lower therefore signals greater potency in that assay.

The values that follow come from ChEMBL document CHEMBL4152189, “Incorporation of nitric oxide donor into 1,3-dioxyxanthones leads to synergistic anticancer activity” (Eur J Med Chem, 2018).

Common to all, as to type: functional, cell-based
For one assay, the system named is MCF7. Description: Growth inhibition of human MCF7 cells after 24 hrs by MTT assay. The following applies: MCF7, 24 h. (In general: Tetrazolium assays rely on reduction of a dye to a coloured formazan, in cell work by metabolically active cells.)
In the next assay the test system is MDA-MB-231. Description: Growth inhibition of human MDA-MB-231 cells after 24 hrs by MTT assay. As to conditions: MDA-MB-231, 24 h.
Another assay relates to HepG2. Description: Growth inhibition of human HepG2 cells after 24 hrs by MTT assay. The following applies: HepG2, 24 h.

Regarding `O=c1c2ccc(O)cc2oc2cc(OCCCCCCCO[N+](=O)[O-])cc(O)c12`, the IC50 in the assay on MCF7 was more than 200 µM; with MDA-MB-231 it was 51.5 µM; in the assay on HepG2, 76.2 µM.
On the same counts, the results for `O=c1c2ccccc2oc2cc(OCCCCCO[N+](=O)[O-])cc(O)c12` are more than 200 µM, 40.7 µM and 4.08 µM.
On the same counts, the results for `O=c1c2ccccc2oc2cc(OCCO[N+](=O)[O-])cc(O)c12` are more than 200 µM, 90.9 µM and 20.5 µM.
For the molecule `COc1cccc2oc3cc(OCCCCCO)cc(O)c3c(=O)c12`, the IC50 with MCF7 was more than 200 µM; with MDA-MB-231, 41.1 µM; in the assay with HepG2 it was 23.7 µM.
As to `O=c1c2cc(Cl)ccc2oc2cc(OCCCCCCCO[N+](=O)[O-])cc(O)c12`, the IC50 worked out at 30.8 µM in the assay on MCF7, 10.2 µM in the assay on MDA-MB-231 and 8.13 µM in the assay with HepG2.
On the same counts, the results for `O=c1c2cc(Br)ccc2oc2cc(OCCCCCCCO[N+](=O)[O-])cc(O)c12` are 35.9 µM, 9.27 µM and 7.28 µM.
With `Cc1ccc2c(=O)c3c(O)cc(OCCCO[N+](=O)[O-])cc3oc2c1`, the IC50 with MCF7 was found to be 62.8 µM; with MDA-MB-231, 78.4 µM; in the assay on HepG2, 12.8 µM.
For `COc1ccc2oc3cc(OCCCCO[N+](=O)[O-])cc(O)c3c(=O)c2c1`, in that order: 83.2 µM, 22.3 µM and 52.1 µM.
On the same counts, the results for `COc1cccc2oc3cc(OCCCCCCO[N+](=O)[O-])cc(O)c3c(=O)c12` are 31 µM, 0.45 µM and 0.61 µM.
On the same counts, the results for `O=[N+]([O-])OCCCCCCO` are 89.7 µM, 90.4 µM and 52.6 µM.
`COc1cccc2oc3cc(O)cc(O)c3c(=O)c12`: the IC50 in the assay on MCF7 is more than 200 µM; in the assay with MDA-MB-231, 66 µM; in the assay on HepG2, 32.5 µM.
On the same counts, the results for `Cc1ccc2c(=O)c3c(O)cc(OCCCCCCCO[N+](=O)[O-])cc3oc2c1` are 42.7 µM, 55.9 µM and 8.76 µM.
For `O=c1c2ccc(O)cc2oc2cc(OCCO[N+](=O)[O-])cc(O)c12`, in that order: more than 200 µM, 108 µM and 160 µM.
On the same counts, the results for `O=c1c2cc(Br)ccc2oc2cc(OCCCCO[N+](=O)[O-])cc(O)c12` are 42.9 µM, 11.2 µM and 10.1 µM.
Regarding `COc1cc2oc3cc(OCCCCCCCO[N+](=O)[O-])cc(O)c3c(=O)c2cc1OC`, the IC50 in the assay on MCF7 came out at 163 µM; with MDA-MB-231, 67.6 µM; in the assay on HepG2, 13.2 µM.
On the same counts, the results for `O=c1c2ccccc2oc2cc(OCCCCCCO[N+](=O)[O-])cc(O)c12` are 93.1 µM, 23.5 µM and 3.17 µM.
For `O=[N+]([O-])OCCCO` [ABRUCOMSTAT], the IC50 in the assay on MCF7 is more than 200 µM; in the assay with MDA-MB-231, more than 200 µM; with HepG2, 111 µM.
Turning to `COc1cccc2oc3cc(OCCCCO[N+](=O)[O-])cc(O)c3c(=O)c12`, the IC50 came to 63 µM in the assay on MCF7, 6.25 µM with MDA-MB-231 and 10.2 µM in the assay with HepG2.
On the same counts, the results for `COc1ccc2oc3cc(O)cc(O)c3c(=O)c2c1` are more than 200 µM, more than 200 µM and 93.2 µM.
Turning to `O=c1c2cc(Br)ccc2oc2cc(OCCCCCCO[N+](=O)[O-])cc(O)c12`, the IC50 with MCF7 amounted to 43.5 µM; in the assay on MDA-MB-231, 15 µM; in the assay on HepG2 it was 1.21 µM.
With `O=c1c2cc(Cl)ccc2oc2cc(OCCCO[N+](=O)[O-])cc(O)c12`, the IC50 amounted to 53.4 µM with MCF7, 27.8 µM in the assay on MDA-MB-231 and 17.4 µM in the assay with HepG2.
For `O=c1c2ccc(O)cc2oc2cc(OCCCCCO[N+](=O)[O-])cc(O)c12`, in that order: 112 µM, 41.4 µM and 62.3 µM.
For `COc1cc2oc3cc(OCCO[N+](=O)[O-])cc(O)c3c(=O)c2cc1OC`, the IC50 is more than 200 µM in the assay with MCF7, 130 µM in the assay on MDA-MB-231 and 91.7 µM with HepG2.
For `COc1ccc2oc3cc(OCCCO[N+](=O)[O-])cc(O)c3c(=O)c2c1`, in that order: 98.2 µM, 35.6 µM and 63.5 µM.
For `COc1cccc2oc3cc(OCCCO[N+](=O)[O-])cc(O)c3c(=O)c12`, in that order: 102 µM, 9.68 µM and 13.6 µM.
For the molecule `O=c1c2ccccc2oc2cc(OCCCO[N+](=O)[O-])cc(O)c12`, the IC50 in the assay on MCF7 was more than 200 µM; in the assay with MDA-MB-231 it was 83.9 µM; with HepG2, 12.3 µM.
As for `COc1ccc2oc3cc(OCCCCCCO[N+](=O)[O-])cc(O)c3c(=O)c2c1`, the IC50 in the assay on MCF7 amounted to 41.1 µM; with MDA-MB-231 it was 3.05 µM; with HepG2, 13.6 µM.
In the case of `O=c1c2ccccc2oc2cc(OCCCCO[N+](=O)[O-])cc(O)c12`, the IC50 in the assay with MCF7 was more than 200 µM; in the assay with MDA-MB-231, 56.6 µM; in the assay with HepG2, 6.55 µM.
Turning to `O=c1c2ccc(O)cc2oc2cc(OCCCCO[N+](=O)[O-])cc(O)c12`, the IC50 was more than 200 µM in the assay on MCF7, 66.7 µM with MDA-MB-231 and 96 µM in the assay with HepG2.
On the same counts, the results for `Cc1ccc2c(=O)c3c(O)cc(OCCCCCO[N+](=O)[O-])cc3oc2c1` are 39.5 µM, 30.7 µM and 2.95 µM.
For `O=c1c2ccc(O)cc2oc2cc(OCCCO[N+](=O)[O-])cc(O)c12`, in that order: more than 200 µM, 82.7 µM and 116 µM.
As to `O=c1c2cc(O)ccc2oc2cc(OCCCCCO[N+](=O)[O-])cc(O)c12`, the results for the IC50 with MCF7, in the assay on MDA-MB-231 and with HepG2 were 91.2 µM, 44.6 µM and 9.91 µM, respectively.
For `O=c1c2cc(Cl)ccc2oc2cc(OCCCCO[N+](=O)[O-])cc(O)c12`, in that order: 42.9 µM, 11.2 µM and 10.1 µM.
Regarding `COc1ccc2oc3cc(OCCCCCCCO[N+](=O)[O-])cc(O)c3c(=O)c2c1`, the IC50 worked out at 71.2 µM in the assay with MCF7, 16.2 µM with MDA-MB-231 and 42.1 µM in the assay on HepG2.
For `O=c1c2ccc(O)cc2oc2cc(OCCCCCCO[N+](=O)[O-])cc(O)c12`, in that order: more than 200 µM, 10.6 µM and 26.4 µM.
For `COc1cccc2oc3cc(OCCO[N+](=O)[O-])cc(O)c3c(=O)c12`, in that order: 104 µM, 11.2 µM and 21.5 µM.
For `O=c1c2cc(O)ccc2oc2cc(OCCCO[N+](=O)[O-])cc(O)c12`, in that order: more than 200 µM, 134 µM and 33 µM.
Take `O=[N+]([O-])OCCCCO`: the results for the IC50 in the assay on MCF7, with MDA-MB-231 and in the assay with HepG2 were more than 200 µM, 157 µM and 90.8 µM, respectively.
For the molecule `COc1cc2oc3cc(OCCCO[N+](=O)[O-])cc(O)c3c(=O)c2cc1OC`, the results for the IC50 in the assay on MCF7, in the assay with MDA-MB-231 and in the assay with HepG2 were more than 200 µM, 112 µM and 53.6 µM, respectively.
On to `O=c1c2ccc(O)cc2oc2cc(O)cc(O)c12`, for which the IC50 in the assay with MCF7, in the assay with MDA-MB-231 and in the assay on HepG2 was more than 200 µM each time.
Consider `O=c1c2cc(O)ccc2oc2cc(OCCCCO[N+](=O)[O-])cc(O)c12`, for which the results for the IC50 with MCF7, in the assay on MDA-MB-231 and in the assay with HepG2 were 143 µM, 92.6 µM and 22.3 µM, respectively.
As for `Cc1ccc2c(=O)c3c(O)cc(OCCCCCCO[N+](=O)[O-])cc3oc2c1`, the IC50 in the assay on MCF7 amounted to 35.1 µM; in the assay with MDA-MB-231, 10.3 µM; with HepG2 it was 1.28 µM.
Regarding `O=c1c2cc(Cl)ccc2oc2cc(OCCCCCCO[N+](=O)[O-])cc(O)c12`, the IC50 in the assay on MCF7 came to 13.3 µM; in the assay on MDA-MB-231 it was 9.74 µM; in the assay on HepG2 it was 6.03 µM.
On the same counts, the results for `Cc1ccc2c(=O)c3c(O)cc(OCCCCO[N+](=O)[O-])cc3oc2c1` are 47.7 µM, 62.9 µM and 10.6 µM.
For `COc1ccc2oc3cc(OCCCCCO[N+](=O)[O-])cc(O)c3c(=O)c2c1`, in that order: 53.4 µM, 9.29 µM and 33.3 µM.
For `O=c1c2cc(Br)ccc2oc2cc(OCCCCCO[N+](=O)[O-])cc(O)c12`, in that order: 73.2 µM, 11.1 µM and 2.65 µM.
On to `COc1cccc2oc3cc(OCCCCCCCO[N+](=O)[O-])cc(O)c3c(=O)c12`, for which the IC50 in the assay on MCF7 was determined as 53.5 µM; in the assay with MDA-MB-231 it was 4.29 µM; in the assay on HepG2 it was 5.26 µM.
For `COc1cc2oc3cc(OCCCCCCO[N+](=O)[O-])cc(O)c3c(=O)c2cc1OC`, in that order: 98.2 µM, 19.8 µM and 1.83 µM.
On the same counts, the results for `COc1cc2oc3cc(OCCCCO[N+](=O)[O-])cc(O)c3c(=O)c2cc1OC` are more than 200 µM, 87.4 µM and 21.2 µM.
Regarding `O=c1c2cc(O)ccc2oc2cc(OCCCCCCO[N+](=O)[O-])cc(O)c12`, the IC50 is 53.7 µM in the assay with MCF7, 18.5 µM with MDA-MB-231 and 11.4 µM in the assay on HepG2.
For `O=c1c2cc(Cl)ccc2oc2cc(OCCCCCO[N+](=O)[O-])cc(O)c12`, in that order: 25.1 µM, 7.79 µM and 5.32 µM.
On the same counts, the results for `O=c1c2cc(Br)ccc2oc2cc(OCCCO[N+](=O)[O-])cc(O)c12` are more than 200 µM, 43.6 µM and 14 µM.
For `COc1cc2oc3cc(OCCCCCO[N+](=O)[O-])cc(O)c3c(=O)c2cc1OC`, in that order: more than 200 µM, 45.6 µM and 6.35 µM.
Regarding `O=c1c2cc(O)ccc2oc2cc(OCCCCCCCO[N+](=O)[O-])cc(O)c12`, the IC50 in the assay on MCF7 is 112 µM; with MDA-MB-231 it was 74.3 µM; with HepG2, 15.2 µM.
Take `O=c1c2cc(O)ccc2oc2cc(O)cc(O)c12`: the IC50 in the assay with MCF7, in the assay with MDA-MB-231 and in the assay on HepG2 was more than 200 µM in each case.
